Experimental data taken from publication PMC9945177, “Nature-Derived Epoxy Resin Monomers with Reduced Sensitizing Capacity—Isosorbide-Based Bis-Epoxides” (Chemical Research in Toxicology, 2023).
Blank lines part the entries; values can stand above or below the molecule they belong to.

Test: skin permeability, static Franz diffusion cells
Type: in vitro ADME, pig
Settings: for permeation of epidermis: 6 h experiment, donor 0.1 mg/mL; for recovery at 6 h, 0.1 mg/mL: pig; for recovery at 6 h, 0.1 mg/mL / amount in receptor fluid after 6 h (%) / amount on/in skin (%) / recovery (%): w/w %; for recovery at 6 h, 0.1 mg/mL / recovery (%): sum of receptor compartment after 6 h and overnight skin extraction; for amount on/in skin (%): overnight skin extraction after 6 h
Description: For the permeability experiments, ultra-performance liquid chromatography-electrospray ionization tandem mass spectroscopy (UPLC)-ESI-MS/MS analysis was carried out using a Xevo TQ-S micro triple quadrupole mass spectrometer equipped with an electrospray interface and coupled to an Acquity UPLC H-Class Plus system from Waters. Separation was achieved on an ACE Excel C18-PFP column (75 × 2.1 mm, 1.7 μm) from Advanced Chromatography Technologies Ltd. (Aberdeen, Scotland). Mobile phase A consisted of 0.1% formic acid and 5% acetonitrile in water, whereas mobile phase B consisted of 0.1% formic acid and 5% water in acetonitrile. The gradient program used was as follows: 20% B (0–2 min), 20–80% B (2–9 min), 80–95% B (9–9.1 min), 95% B (9.1–12 min), 95–20% B (12–12.1 min), 20% B (12.1–15 min). The flow rate was set to 0.3 mL/min and the injection volume was 2 μL. Analysis was performed in positive ionization mode using a Multiple Reaction Monitoring (MRM) method. The optimal parameters were capillary voltage 1.5 (kV), desolvation temperature 650 °C, desolvation gas 850 L/h, and cone 100 L/h.
The Franz diffusion cell experiment was based on the OECD Test Guidelines.[35] Static Franz diffusion cells equipped with pig ex vivo epidermis were used to assess the permeability of isosorbide bis-epoxides 2 and 3. Freshly cut pig ears were received frozen and stored at −20 °C until used for permeability assessment. One day before the experiment, the ears were transferred at +4 °C and allowed to thaw. The ears were then washed, shaved, and carefully cut with a Watson Dermatome skin graft knife to obtain 0.1 mm pieces of the epidermis layer. The integrity of the skin (transparent and intact) was determined by ocular inspection. Thereafter, the epidermis layer was cut and positioned between the donor and receptor compartment of each Franz cell. The receptor compartments were filled with 5 mL of ethanol/PBS (1:1) and equipped with a small magnetic stir bar to ensure mixing while maintaining a constant temperature of the circulating water at 37 °C. To equilibrate the skin, the upper chamber was filled with 0.5 mL of ethanol/PBS (1:1) which was later removed and replaced with the donor solution (50 μL) containing either 2 or 3 (0.1 mg/mL) or DGEBA (0.1 mg/mL) used as a positive control. A procedural blank containing only 50 μL of ethanol/PBS (1:1) in the donor compartment was also included in the experimental setup. Samples of 100 μL were collected after 0–2 min, 1, 2, 3, 4, 5, and 6 h. At each timepoint, a sample aliquot was removed and 100 μL of ethanol/PBS (1:1) was added to the receptor compartment to keep the volume constant. After 6 h, the skin from each Franz cell was extracted overnight in 5 mL of ethanol/PBS (1,1). Triplicate experiments were performed for each compound. The obtained samples were analyzed with UPLC-ESI-MS/MS (see Figure S2 for parameters) and quantification was based on external calibration curves. The limit of quantification (LOQ) was determined by the analysis of the analyte at low concentration and was calculated as 10 times the signal-to-noise ratio.

[1] = Extract: skin extracted overnight after 6 h

permeation of epidermis: observed | Average (µM) [1]: 0.345 µM | Average (µg/ml) [1]: 0.161 µg/mL | Replicate 1 [1]: 0.203 µg/mL | Replicate 2 [1]: 0.139 µg/mL | Replicate 3 [1]: 0.141 µg/mL | recovery at 6 h, 0.1 mg/mL: 48% | Average (µM) (receptor fluid, timepoint 0 h): 0 µM | Average (µg/ml) (receptor fluid, timepoint 0 h): 0 µg/mL | Replicate 1 (µg/ml) (receptor fluid, timepoint 0 h): < LOQ | Replicate 2 (µg/ml) (receptor fluid, timepoint 0 h): < LOQ | Replicate 3 (µg/ml) (receptor fluid, timepoint 0 h): < LOQ | Average (µM) (receptor fluid, timepoint 1 h): 0.123 µM | Average (µg/ml) (receptor fluid, timepoint 1 h): 0.0574 µg/mL | Replicate 1 (receptor fluid, timepoint 1 h): 0.0637 µg/mL | Replicate 2 (receptor fluid, timepoint 1 h): 0.0511 µg/mL | Average (µM) (receptor fluid, timepoint 2 h): 0.490 µM | Average (µg/ml) (receptor fluid, timepoint 2 h): 0.228 µg/mL | Replicate 1 (receptor fluid, timepoint 2 h): 0.299 µg/mL | Replicate 2 (receptor fluid, timepoint 2 h): 0.233 µg/mL | Replicate 3 (receptor fluid, timepoint 2 h): 0.154 µg/mL | Average (µM) (receptor fluid, timepoint 3 h): 0.669 µM | Average (µg/ml) (receptor fluid, timepoint 3 h): 0.312 µg/mL | Replicate 1 (receptor fluid, timepoint 3 h): 0.437 µg/mL | Replicate 2 (receptor fluid, timepoint 3 h): 0.320 µg/mL | Replicate 3 (receptor fluid, timepoint 3 h): 0.180 µg/mL | Average (µM) (receptor fluid, timepoint 4 h): 0.796 µM | Average (µg/ml) (receptor fluid, timepoint 4 h): 0.371 µg/mL | Replicate 1 (receptor fluid, timepoint 4 h): 0.538 µg/mL | Replicate 2 (receptor fluid, timepoint 4 h): 0.362 µg/mL | Replicate 3 (receptor fluid, timepoint 4 h): 0.213 µg/mL | Average (µM) (receptor fluid, timepoint 5 h): 0.721 µM | Average (µg/ml) (receptor fluid, timepoint 5 h): 0.336 µg/mL | Replicate 1 (receptor fluid, timepoint 5 h): 0.500 µg/mL | Replicate 2 (receptor fluid, timepoint 5 h): 0.323 µg/mL | Replicate 3 (receptor fluid, timepoint 5 h): 0.186 µg/mL | Average (µM) (receptor fluid, timepoint 6 h): 0.679 µM | Average (µg/ml) (receptor fluid, timepoint 6 h): 0.317 µg/mL | Replicate 1 (receptor fluid, timepoint 6 h): 0.474 µg/mL | Replicate 2 (receptor fluid, timepoint 6 h): 0.309 µg/mL | Replicate 3 (receptor fluid, timepoint 6 h): 0.166 µg/mL | amount in receptor fluid after 6 h (%): 31.7 ± 12.6% | amount on/in skin (%): 16.1 ± 3.0% | recovery (%): 47.7 ± 15.6%
Structure (SMILES): O=C(OC1COC2C(OC(=O)c3ccc(CC4CO4)cc3)COC12)c1ccc(CC2CO2)cc1 [Compound 2, (3R,3aR,6S,6aR)-3,6-O-Bis[4-(3,4-epoxypropyl)benzoyl]-1,4:3,6-dianhydro-D-glucitol]

permeation of epidermis: observed | Average (µM) [1]: 0.0736 µM | Average (µg/ml) [1]: 0.0323 µg/mL | Replicate 1 [1]: 0.0650 µg/mL | Replicate 2 [1]: 0.000965 µg/mL | Replicate 3 [1]: 0.0309 µg/mL | recovery at 6 h, 0.1 mg/mL: 25% | Average (µM) (receptor fluid, timepoint 0 h): 0 µM | Average (µg/ml) (receptor fluid, timepoint 0 h): 0 µg/mL | Replicate 1 (µg/ml) (receptor fluid, timepoint 0 h): < LOQ | Replicate 2 (µg/ml) (receptor fluid, timepoint 0 h): < LOQ | Replicate 3 (µg/ml) (receptor fluid, timepoint 0 h): < LOQ | Average (µM) (receptor fluid, timepoint 1 h): 0.187 µM | Average (µg/ml) (receptor fluid, timepoint 1 h): 0.0818 µg/mL | Replicate 1 (receptor fluid, timepoint 1 h): 0.0897 µg/mL | Replicate 2 (receptor fluid, timepoint 1 h): 0.110 µg/mL | Replicate 3 (receptor fluid, timepoint 1 h): 0.0460 µg/mL | Average (µM) (receptor fluid, timepoint 2 h): 0.465 µM | Average (µg/ml) (receptor fluid, timepoint 2 h): 0.204 µg/mL | Replicate 1 (receptor fluid, timepoint 2 h): 0.139 µg/mL | Replicate 2 (receptor fluid, timepoint 2 h): 0.292 µg/mL | Replicate 3 (receptor fluid, timepoint 2 h): 0.180 µg/mL | Average (µM) (receptor fluid, timepoint 3 h): 0.563 µM | Average (µg/ml) (receptor fluid, timepoint 3 h): 0.247 µg/mL | Replicate 1 (receptor fluid, timepoint 3 h): 0.191 µg/mL | Replicate 2 (receptor fluid, timepoint 3 h): 0.347 µg/mL | Replicate 3 (receptor fluid, timepoint 3 h): 0.203 µg/mL | Average (µM) (receptor fluid, timepoint 4 h): 0.542 µM | Average (µg/ml) (receptor fluid, timepoint 4 h): 0.238 µg/mL | Replicate 1 (receptor fluid, timepoint 4 h): 0.202 µg/mL | Replicate 2 (receptor fluid, timepoint 4 h): 0.309 µg/mL | Replicate 3 (receptor fluid, timepoint 4 h): 0.203 µg/mL | Average (µM) (receptor fluid, timepoint 5 h): 0.539 µM | Average (µg/ml) (receptor fluid, timepoint 5 h): 0.236 µg/mL | Replicate 1 (receptor fluid, timepoint 5 h): 0.204 µg/mL | Replicate 2 (receptor fluid, timepoint 5 h): 0.306 µg/mL | Replicate 3 (receptor fluid, timepoint 5 h): 0.198 µg/mL | Average (µM) (receptor fluid, timepoint 6 h): 0.495 µM | Average (µg/ml) (receptor fluid, timepoint 6 h): 0.217 µg/mL | Replicate 1 (receptor fluid, timepoint 6 h): 0.165 µg/mL | Replicate 2 (receptor fluid, timepoint 6 h): 0.298 µg/mL | Replicate 3 (receptor fluid, timepoint 6 h): 0.189 µg/mL | amount in receptor fluid after 6 h (%): 21.7 ± 5.8% | amount on/in skin (%): 3.2 ± 2.6% | recovery (%): 24.9 ± 8.4%
Structure (SMILES): c1cc(CC2CO2)ccc1CO[C@H]1CO[C@H]2[C@@H]1OC[C@H]2OCc1ccc(CC2CO2)cc1 (stereo partly drawn) [Compound 3, (3R,3aR,6S,6aR)-3,6-O-Bis[4-(3,4-epoxypropyl)benzyl]-1,4:3,6-dianhydro-D-glucitol]
